# Measurements: patent US20080167461A1, “Process for Preparing 3,6-Dichloropyridazine-1-Oxide” (SANKYO AGRO COMPANY, LIMITED, priority 2005, published 2008)
# Assays:
# rice plants = assay: Chemical damage to transplanted rice plants (flooding soil treatment, pot test); type: in vivo
# Text: (§1) Rice paddy soil was filled into a 1/10,000a pot, followed by mixing seeds of dormancy awakening Echinochloa oryzicola and Scirpus joncoides, and annual broadleaf weeds (Lindernia spp. and Rotala indica) in 1 cm of the surface layer of soil. In addition, Cyperus serotinus tubers subjected to accelerated germination were planted, followed by transplanting rice seedlings at the 2.2 leaf stage and growing under flooding conditions in a greenhouse. Three days after transplant, a predetermined dose of the wettable powder prepared according to Reference Example 2 was diluted with water, the soil was treated with a spraying solution thereof under flooding conditions and herbicidal effects and chemical damage to the transplanted rice plants were measured according to the evaluation criteria shown below 25 days after treatment.
# (§2) 0: Growth inhibition rate 0 to 10%
# (§3) 1: Growth inhibition rate 11 to 30%
# (§4) 2: Growth inhibition rate 31 to 50%
# (§5) 3: Growth inhibition rate 51 to 70%
# (§6) 4: Growth inhibition rate 71 to 90%
# (§7) 5: Growth inhibition rate 91 to 100%
# Scirpus joncoides = assay: Treatment prior to germination of rice paddy weeds (flooding soil treatment, pot test); type: in vivo; conditions: dose 10 g/a; wettable powder diluted with water, treated 3 days after transplant under flooding; evaluated 25 days after treatment
# Text: as §1, §2, §3, §4, §5, §6, §7
# Cyperus serotinus = assay: as above; type: in vivo; conditions: dose 10 g/a; wettable powder diluted with water, treated 3 days after transplant under flooding; evaluated 25 days after treatment
# Text: as §1, §2, §3, §4, §5, §6, §7
# [1] = system: annual broadleaf weeds (Lindernia spp. and Rotala indica); assay: as above; type: in vivo; conditions: dose 10 g/a; wettable powder diluted with water, treated 3 days after transplant under flooding; evaluated 25 days after treatment
# Text: as §1, §2, §3, §4, §5, §6, §7
# Echinochloa oryzicola = assay: as above; type: in vivo; conditions: dose 10 g/a; wettable powder diluted with water, treated 3 days after transplant under flooding; evaluated 25 days after treatment
# Text: as §1, §2, §3, §4, §5, §6, §7
# [2] = system: dominant weeds of rice paddies; assay: Herbicidal activity in rice paddies, flooding soil treatment before or after weed germination (general statement); type: in vivo
# Text: The compound synthesized in Reference Example 1 has herbicidal action, and can be used as a herbicide.
smiles,measurement,setting,value
"Cc1cccc(C)c1Oc1nnc(Cl)cc1O [Reference Example 1, 6-Chloro-3-(2,6-dimethylphenoxy)-4-pyridazinol]",chemical toxicity with respect to rice,"rice plants; flooding soil treatment before or after weed germination, general statement",without demonstrating problems in terms of chemical toxicity
same,activity against rice plants (chemical damage grade),"rice plants; transplanted rice seedlings (2.2 leaf stage), dose 10 g/a, evaluated 25 days after treatment",0 (Growth inhibition rate 0 to 10%)
same,herbicidal activity (growth inhibition grade) against Scirpus joncoides,Scirpus joncoides,5 (Growth inhibition rate 91 to 100%)
same,herbicidal activity (growth inhibition grade) against Cyperus serotinus,Cyperus serotinus,5 (Growth inhibition rate 91 to 100%)
same,herbicidal activity (growth inhibition grade) against broadleaf weeds,[1],5 (Growth inhibition rate 91 to 100%)
same,herbicidal activity (growth inhibition grade) against Echinochloa oryzicola,Echinochloa oryzicola,2 (Growth inhibition rate 31 to 50%)
same,melting point,,214 to 215 °C
same,herbicidal activity against dominant weeds of rice paddies,[2],demonstrates herbicidal activity
